Data reported in the supplement of paper PMC10307832.

What follows are cell lines tested with COC1=CC=C(C=C1)CN2C=CC3=C2C=C(C=C3)C(=O)NO + Nc1ncn([C@H]2C[C@H](O)[C@@H](CO)O2)c(=O)n1 [Decitabine] (partner 2 µM) (assay: relative viability (nuclei count vs DMSO), 5 days (fraction); higher = more cells survive). Conditions: first compound 0.08 µM.
Method in brief: (§1)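 One day after seeding in 1536-well plates, lung cancer cell lines were dosed by pin tool. Dosing was either single-drug or a fixed anchor-drug dose plus five library-drug doses (not always all listed) in √10 steps. After 5 days, nuclei were stained in one fix-and-stain step and counted on 4× images, and relative viability is the nuclei count of treated wells over that of vehicle wells, given as the median of duplicate plates.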

Cell Line	relative viability
NCI-H23	0.291
HCC-366	0.231

Same assay, conditions: first compound 0.253 µM

Cell Line	relative viability
NCI-H23	0.325
NCI-H661	0.591
HCC-366	0.365

Same assay, conditions: first compound 0.8 µM

Cell Line	relative viability
NCI-H23	0.377
NCI-H661	0.61
HCC-366	0.351
NCI-H322M	0.716

Same assay, conditions: first compound 2.53 µM

Cell Line	relative viability
NCI-H23	0.301
NCI-H661	0.519
HCC-366	0.337
NCI-H322M	0.66

Same assay, conditions: first compound 8 µM

Cell Line	relative viability
NCI-H23	0.296
NCI-H661	0.44
HCC-366	0.264
NCI-H322M	0.69

The cell lines below were run with COC1=CC=C(C=C1)CN2C=CC3=C2C=C(C=C3)C(=O)NO + CC(C)C[C@H](NC(=O)[C@H](Cc1ccccc1)NC(=O)c1cnccn1)B(O)O [Bortezomib] (partner 0.002 µM) in the same assay as above. Conditions: first compound 0.08 µM.
Method in brief: as §1

Cell Line	relative viability
NCI-H23	1.04

Same assay, conditions: first compound 0.253 µM

Cell Line	relative viability
NCI-H23	1.02
NCI-H661	0.811
HCC-366	1.12
NCI-H322M	0.971

Same assay, conditions: first compound 0.8 µM

Cell Line	relative viability
NCI-H23	1.14
NCI-H661	0.649
HCC-366	1.03
NCI-H322M	1.27

Same assay, conditions: first compound 2.53 µM

Cell Line	relative viability
NCI-H23	0.975
NCI-H661	0.843
HCC-366	1.02
NCI-H322M	1.23

Same assay, conditions: first compound 8 µM

Cell Line	relative viability
NCI-H23	0.594
NCI-H661	0.715
HCC-366	0.934
NCI-H322M	1.26

The cell lines below were run with COC1=CC=C(C=C1)CN2C=CC3=C2C=C(C=C3)C(=O)NO + CC(=O)Nc1cccc(-n2c(=O)n(C3CC3)c(=O)c3c(Nc4ccc(I)cc4F)n(C)c(=O)c(C)c32)c1 [Trametinib] (partner 0.02 µM) in the same assay as above. Conditions: first compound 0.08 µM.
Method in brief: as §1

Cell Line	relative viability
NCI-H23	0.298
HCC-366	0.293

Same assay, conditions: first compound 0.253 µM

Cell Line	relative viability
NCI-H23	0.445
NCI-H661	0.634
HCC-366	0.28

Same assay, conditions: first compound 0.8 µM

Cell Line	relative viability
NCI-H23	0.397
NCI-H661	0.611
HCC-366	0.328
NCI-H322M	0.493

Same assay, conditions: first compound 2.53 µM

Cell Line	relative viability
NCI-H23	0.381
NCI-H661	0.533
HCC-366	0.295
NCI-H322M	0.495

Same assay, conditions: first compound 8 µM

Cell Line	relative viability
NCI-H23	0.283
NCI-H661	0.457
HCC-366	0.333
NCI-H322M	0.485

Each cell line was assayed with C[C@]1(c2nc3c(C(N)=O)cccc3[nH]2)CCCN1 [Veliparib] + C[C@@H](Oc1cc(-c2cnn(C3CCNCC3)c2)cnc1N)c1c(Cl)ccc(F)c1Cl [Crizotinib] (partner 1 µM) in the same assay as above. Conditions: first compound 0.02 µM.
Method in brief: as §1

Cell Line	relative viability
NCI-H23	0.52
NCI-H661	0.91
HCC-366	0.592
NCI-H322M	0.895

Same assay, conditions: first compound 0.06325 µM

Cell Line	relative viability
NCI-H23	0.521
NCI-H661	0.884
HCC-366	0.38
NCI-H322M	0.83

Same assay, conditions: first compound 0.2 µM

Cell Line	relative viability
NCI-H23	0.606
NCI-H661	0.909
HCC-366	0.543
NCI-H322M	0.948

Same assay, conditions: first compound 0.6325 µM

Cell Line	relative viability
NCI-H23	0.596
NCI-H661	0.885
HCC-366	0.401
NCI-H322M	0.919

Same assay, conditions: first compound 2 µM

Cell Line	relative viability
NCI-H23	0.625
NCI-H661	0.963
HCC-366	0.419
NCI-H322M	0.945
